Laboratory results reported in patent US20240398828A1, “HETERO-ATOM CONTAINING COMPOUNDS AND USES THEREOF” (Kumquat Biosciences Inc., priority 2021, published 2024).

Key:
PTPN2 (i.e., TC-PTP) = target: T1, PTPN2 (i.e., TC-PTP) (Homo sapiens, UniProt P17706); assay: Phosphatase activity assay (DiFMUP substrate), PTPN2; assay type: biochemical; conditions: compounds binned ≤1 uM or >1 uM
T1 sequence (P17706 1-415): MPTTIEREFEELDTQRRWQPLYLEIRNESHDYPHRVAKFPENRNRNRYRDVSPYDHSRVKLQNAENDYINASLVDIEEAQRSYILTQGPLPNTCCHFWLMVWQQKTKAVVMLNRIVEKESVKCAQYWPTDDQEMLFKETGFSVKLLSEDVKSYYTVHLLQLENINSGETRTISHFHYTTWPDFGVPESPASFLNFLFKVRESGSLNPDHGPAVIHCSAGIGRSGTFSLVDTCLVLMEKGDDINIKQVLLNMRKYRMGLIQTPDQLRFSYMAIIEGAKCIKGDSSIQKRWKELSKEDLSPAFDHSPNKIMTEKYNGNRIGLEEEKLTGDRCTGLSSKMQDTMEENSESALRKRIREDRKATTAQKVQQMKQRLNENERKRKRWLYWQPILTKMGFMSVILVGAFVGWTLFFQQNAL
Procedure, shortened: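 Continuous fluorogenic readout of DiFMUP dephosphorylation at room temperature, substrate set at Km for each phosphatase (about 45 μM in the PTPN2 assay). The buffer contains 1 mM DTT and 0.001% Tween-20, pH 7.5.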

PTPN1 (i.e., PTP1B) = target: T2, PTPN1 (i.e., PTP1B) (Homo sapiens, UniProt P18031); assay: Phosphatase activity assay (DiFMUP substrate), PTP1B; assay type: biochemical; conditions: compounds binned ≤1 uM or >1 uM
T2 sequence (P18031 1-435): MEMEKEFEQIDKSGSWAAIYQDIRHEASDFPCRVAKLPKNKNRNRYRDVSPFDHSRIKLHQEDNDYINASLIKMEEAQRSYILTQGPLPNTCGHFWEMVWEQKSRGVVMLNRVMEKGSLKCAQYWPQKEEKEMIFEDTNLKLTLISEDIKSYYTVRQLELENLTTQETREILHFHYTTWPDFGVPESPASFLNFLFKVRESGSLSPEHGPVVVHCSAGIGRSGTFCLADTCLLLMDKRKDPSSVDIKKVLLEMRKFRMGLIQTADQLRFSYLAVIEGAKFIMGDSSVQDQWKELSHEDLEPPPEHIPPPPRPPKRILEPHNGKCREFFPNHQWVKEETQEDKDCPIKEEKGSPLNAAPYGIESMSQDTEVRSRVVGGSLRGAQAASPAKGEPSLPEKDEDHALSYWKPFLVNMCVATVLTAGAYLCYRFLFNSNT
Procedure, shortened: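 First, serially diluted inhibitor is mixed about 2 minutes with enzyme in pH 7.5 HEPES/NaCl/EDTA/DTT/Tween-20 buffer. Next, DiFMUP is added at the enzyme's Km, approximately 45 μM for PTPN2. Finally, DiFMU appearance is read continuously at room temperature and rates are fitted for IC50.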

SMILES	IC50 (PTPN2 (i.e., TC-PTP))	IC50 (PTPN1 (i.e., PTP1B))
O=C1CN(c2c(O)ccc(-c3cnn(CC4CCCCC4)c3)c2F)S(=O)(=O)N1 [Compound 179, 5-(3-(1-(cyclohexylmethyl)-1H-pyrazol-4-yl)-2-fluoro-6-hydroxyphenyl)-1,2,5-thiadiazolidin-3-one 1,1-dioxide]	≤ 1000 nM	≤ 1000 nM
CN1CCC(n2cc(-c3ccc(O)c(N4CC(=O)NS4(=O)=O)c3F)cn2)CC1 [Compound 259, 5-(2-fluoro-6-hydroxy-3-(1-(1-methylpiperidin-4-yl)-1H-pyrazol-4-yl)phenyl)-1,2,5-thiadiazolidin-3-one 1,1-dioxide]	≤ 1000 nM	≤ 1000 nM
O=C1CN(c2c(O)ccc(-c3cnn(-c4ccccc4)c3)c2F)S(=O)(=O)N1 [Compound 147, 5-(2-fluoro-6-hydroxy-3-(1-phenyl-1H-pyrazol-4-yl)phenyl)-1,2,5-thiadiazolidin-3-one 1,1-dioxide]	≤ 1000 nM	≤ 1000 nM
O=C1CN(c2c(O)ccc(C3=CCN(CC(F)F)C3)c2F)S(=O)(=O)N1 [Compound 521, 5-(3-(1-(2,2-difluoroethyl)-2,5-dihydro-1H-pyrrol-3-yl)-2-fluoro-6-hydroxyphenyl)-1,2,5-thiadiazolidin-3-one 1,1-dioxide]	≤ 1000 nM	≤ 1000 nM
O=C1CN(c2c(O)ccc(C3=CCN(CC4CC4)C3)c2F)S(=O)(=O)N1 [Compound 496, 5-(3-(1-(cyclopropylmethyl)-2,5-dihydro-1H-pyrrol-3-yl)-2-fluoro-6-hydroxyphenyl)-1,2,5-thiadiazolidin-3-one 1,1-dioxide]	≤ 1000 nM	≤ 1000 nM
CC(C)CCn1cnc(-c2ccc(O)c(C3=CC(=O)NS3(=O)=O)c2F)c1 [Compound 391, 5-(2-fluoro-6-hydroxy-3-(1-isopentyl-1H-imidazol-4-yl)phenyl)isothiazol-3(2H)-one 1,1-dioxide]	≤ 1000 nM	≤ 1000 nM
O=C1CN(c2c(O)ccc(-c3cn(-c4ccc(F)cc4)cn3)c2F)S(=O)(=O)N1 [Compound 209, 5-(2-fluoro-3-(1-(4-fluorophenyl)-1H-imidazol-4-yl)-6-hydroxyphenyl)-1,2,5-thiadiazolidin-3-one 1,1-dioxide]	≤ 1000 nM	≤ 1000 nM
O=C1CN(c2c(O)ccc(-c3cnn(C4CC5(CCC5)C4)c3)c2F)S(=O)(=O)N1 [Compound 242, 5-(2-fluoro-6-hydroxy-3-(1-(spiro[3.3]heptan-2-yl)-1H-pyrazol-4-yl)phenyl)-1,2,5-thiadiazolidin-3-one 1,1-dioxide]	≤ 1000 nM	≤ 1000 nM
CC1(n2cc(-c3ccc(O)c(N4CC(=O)NS4(=O)=O)c3F)cn2)CC1 [Compound 324, 5-(2-fluoro-6-hydroxy-3-(1-(1-methylcyclopropyl)-1H-pyrazol-4-yl)phenyl)-1,2,5-thiadiazolidin-3-one 1,1-dioxide]	≤ 1000 nM	≤ 1000 nM
Cn1ccc(-c2ccc(O)c(N3CC(=O)NS3(=O)=O)c2F)c1 [Compound 185, 5-(2-fluoro-6-hydroxy-3-(1-methyl-1H-pyrrol-3-yl)phenyl)-1,2,5-thiadiazolidin-3-one 1,1-dioxide]	≤ 1000 nM	≤ 1000 nM
